For 32 molecules, IC50 results are on record in patent US20240246918A1, “COMPOUNDS AND COMPOSITIONS AS EIF4E INHIBITORS AND THE USES THEREOF” (Ribometrix, Inc., priority 2022, published 2024).

The structures appear in SMILES notation. Read-outs that look alike come from different tables or passages of the source.

For experiment [1], the target named is T1, human eIF4E protein (Homo sapiens, UniProt P06730).
T1 construct: purchased Novus NBP-45314
Put plainly: Biochemical competitive binding assay (TR-FRET competition, EDA-m7GDP-ATTO-647N probe). The settings on record: read-out: hEIF4E TR-FRET IC50. The procedure, abridged:
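IC50 values come from 4-parameter fits of the normalized 665/620 nm TR-FRET ratio. Compound was first incubated 15 min with 4 nM recombinant His-eIF4E bound to 2.5 nM Eu-anti-His antibody, then 15 min with 5 nM m7GDP-ATTO-647N tracer, in pH 7.5 HEPES buffer with 100 mM KCl, Tween-20 and BSA.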

For experiment [2], the system named is cap-dependent translation in Flp-In-293 reporter cells. Put plainly: Cellular cap-dependent translation inhibition assay (dual luciferase assay, DLA; Fluc/Rluc ratio, 24 hours). In kind it is cell-based.
For experiment [3], the system named is COLO 205 colorectal tumor cells. The experiment can be described thus: Tumor cell viability inhibition assay (CellTiter-Glo 2.0, 72 hours). Type of experiment: cell-based. The settings on record: COLO 205 cell viability. The procedure, abridged:
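IC50 derived by 4-parameter fitting after normalizing luminescence to DMSO and max-inhibition wells. Compounds tested as 11 concentrations in 4-fold steps on COLO 205 cells seeded at 1500 per well in RPMI-1640/10% FBS; ATP content measured with CellTiter-Glo 2.0 after 72 h.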

[4] abbreviates: Homo sapiens, Flp-In-293, 24 h, dual luciferase assay, Flp-In-293 reporter cells, 24 hours, Fluc/Rluc ratio, read-out: DLA 205 IC50.
[5] abbreviates: dual luciferase assay, Flp-In-293 reporter cells, 24 hours, Fluc/Rluc ratio, read-out: DLA 205 IC50.

T1 sequence (P06730 whole entry): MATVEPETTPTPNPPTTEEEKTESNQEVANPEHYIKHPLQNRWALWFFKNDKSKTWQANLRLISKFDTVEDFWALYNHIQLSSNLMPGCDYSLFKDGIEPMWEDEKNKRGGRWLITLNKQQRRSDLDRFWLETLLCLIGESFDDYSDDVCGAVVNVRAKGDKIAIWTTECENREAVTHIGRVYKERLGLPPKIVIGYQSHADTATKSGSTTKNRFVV

Regarding `Cc1cc(-c2cc(Cl)ccc2OCCn2c(C)nc3c(c2=O)CC(N(C)C2CC2)CC3)c2scc(C(=O)O)c2n1` (single isomer, unassigned) [Compound 335], the IC50 in experiment [1] is below 100 nM; in experiment [2] (setting [4]), below 1000 nM; in experiment [3] (Homo sapiens, COLO 205, 72 h), below 5000 nM.
Consider `Cc1cc(-c2cc(Cl)ccc2OCCn2c(C)nc3c(c2=O)CC2(CC3)CCN(C)CC2)c2scc(C(=O)O)c2n1` [Compound 268, 7-(5-chloro-2-(2-(1,2′-dimethyl-4′-oxo-7′,8′-dihydro-4′H-spiro[piperidine-4,6′-quinazolin]-3′(5′H)-yl)ethoxy)phenyl)-5-methylthieno[3,2-b]pyridine-3-carboxylic acid], for which the IC50 in experiment [1] is 500 to 5000 nM; in experiment [2] (setting [4]) it was above 5000 nM; in experiment [3] (Homo sapiens, COLO 205, 72 h) it was above 20000 nM.
For the molecule `Cc1nc2c(c(=O)n1CC#Cc1ccc(Cl)cc1-c1ccnc3c(C(=O)O)csc13)CC(N1CCCCC1)CC2` (stereo not drawn) [Compound 357], the IC50 is below 100 nM in experiment [1]; below 1000 nM in experiment [2] (setting [4]); below 5000 nM in experiment [3] (Homo sapiens, COLO 205, 72 h).
In the same order, the values of `Cc1cc(-c2cc(Cl)ccc2OCCn2c(C)nc3c(c2=O)CC(N2CC4COCC4C2)CC3)c2scc(C(=O)O)c2n1` (single isomer, unassigned) [Compound 67] are below 100 nM, below 1000 nM and below 5000 nM.
The matching figures for `Cc1cc(-c2cc(Cl)ccc2OCCn2c(C)nc3c(c2=O)CC(N(C2CCC2)C2CC(F)(F)C2)CC3)c2scc(C(=O)NS(C)(=O)=O)c2n1` (stereo not drawn) [Compound 98]: below 100 nM, below 1000 nM and below 5000 nM.
In the same order, the values of `COC(=O)c1csc2c(-c3cc(Cl)ccc3OCCn3c(C)nc4c(c3=O)CC(N(C3CC3)C3CC3)CC4)cc(C)nc12` (stereo not drawn) [Compound 339] are 500 to 5000 nM, above 5000 nM and 5000 to 20000 nM.
As to `Cc1cc(-c2cc(Cl)ccc2OCCn2c(C)nc3c(c2=O)CC(N2CC4(CN(C)C4)C2)CC3)c2scc(C(=O)O)c2n1` (stereo not drawn) [Compound 35], the IC50 in experiment [1] was below 100 nM; in experiment [2] (setting [4]), above 5000 nM; in experiment [3] (Homo sapiens, COLO 205, 72 h), above 20000 nM.
In the same order, the values of `Cc1cc(-c2cc(Cl)ccc2OCCn2c(C)nc3c(c2=O)CC(N2CC4COCC4C2)CC3)c2scc(C(=O)NS(C)(=O)=O)c2n1` (single isomer, unassigned) [Compound 359] are below 100 nM, below 1000 nM and below 5000 nM.
Consider `Cc1cc(-c2cc(Cl)ccc2OCCn2c(C)nc3c(c2=O)CC(N(C)Cc2ccncc2)CC3)c2scc(C(=O)O)c2n1` (single isomer, unassigned) [Compound 99], for which the IC50 in experiment [1] is below 100 nM; in experiment [2] (setting [4]), 1000 to 5000 nM; in experiment [3] (Homo sapiens, COLO 205, 72 h) it was 5000 to 20000 nM.
Regarding `Cc1cc(-c2cc(Cl)ccc2OCCn2c(C)nc3c(c2=O)CC(N2CC(F)(F)C2)CC3)c2sccc2n1` (single isomer, unassigned) [Compound 341], the values for the IC50 in experiment [1], in experiment [2] (setting [5]) and in experiment [3] were 500 to 5000 nM, above 5000 nM and above 20000 nM, respectively.
Turning to `Cc1cc(-c2cc(Cl)ccc2OCCn2c(C)cc3c(c2=O)CC2(CC3)CN(C)C2)c2scc(C(=O)O)c2n1` [Compound 269], the IC50 in experiment [1] is below 100 nM; in experiment [2] (setting [4]) it was above 5000 nM; in experiment [3] (Homo sapiens, COLO 205, 72 h) it was above 20000 nM.
As to `Cc1nc2c(c(=O)n1CC#Cc1ccc(Cl)cc1-c1ccnc3c(C(=O)O)csc13)CC(N(C)C)CC2` (single isomer, unassigned) [Compound 297], the IC50 in experiment [1] was 500 to 5000 nM; in experiment [2] (setting [5]) it was above 5000 nM; in experiment [3], above 20000 nM.
In the case of `Cc1cc(-c2cc(Cl)ccc2OCCn2c(C)nc3c(c2=O)CC(N(C)CC2CC(F)(F)C2)CC3)c2scc(C(=O)O)c2n1` (stereo not drawn) [Compound 96], the IC50 in experiment [1] is below 100 nM; in experiment [2] (setting [4]) it was below 1000 nM; in experiment [3] (Homo sapiens, COLO 205, 72 h) it was below 5000 nM.
The matching figures for `Cc1cc(-c2cc(Cl)ccc2OCCn2c(C)nc3c(c2=O)CC(N(C)CC(F)(F)F)CC3)c2scc(C(=O)O)c2n1` (stereo not drawn) [Compound 54]: below 100 nM, 1000 to 5000 nM and 5000 to 20000 nM.
In the same order, the values of `Cc1cc(-c2cc(Cl)ccc2OCCn2c(C)nc3c(c2=O)C[C@H](N2CCC[C@H](F)C2)CC3)c2scc(C(=O)O)c2n1` (single isomer, unassigned) [Compound 283] are below 100 nM, below 1000 nM and below 5000 nM.
In the same order, the values of `CC(=O)N(C)C1CCc2nc(C)n(CCOc3ccc(Cl)cc3-c3cc(C)nc4c(C(=O)O)csc34)c(=O)c2C1` (stereo not drawn) [Compound 38] are 100 to 500 nM, above 5000 nM and above 20000 nM.
As for `Cc1cc(-c2cc(Cl)ccc2OCCn2c(C)nc3c(c2=O)CC(N(C)Cc2ccncc2F)CC3)c2scc(C(=O)O)c2n1` (stereo not drawn) [Compound 57], the IC50 in experiment [1] is below 100 nM; in experiment [2] (setting [4]), below 1000 nM; in experiment [3] (Homo sapiens, COLO 205, 72 h) it was below 5000 nM.
Consider `Cc1cc(-c2cc(Cl)ccc2OCCn2c(C)nc3c(c2=O)CC(N2CCC(F)(F)CC2)CC3)c2scc(C(=O)NS(C)(=O)=O)c2n1` (single isomer, unassigned) [Compound 254], for which the IC50 in experiment [1] is below 100 nM; in experiment [2] (setting [5]), below 1000 nM; in experiment [3], below 5000 nM.
For the molecule `Cc1cc(-c2cc(Cl)ccc2OCCn2c(C)nc3c(c2=O)CC(N(CC(F)(F)F)C2CC2)CC3)c2scc(C(=O)O)c2n1` (single isomer, unassigned) [Compound 319], the IC50 was in the range of 100 to 500 nM in experiment [1]; 1000 to 5000 nM in experiment [2] (setting [4]); 5000 to 20000 nM in experiment [3] (Homo sapiens, COLO 205, 72 h).
In the same order, the values of `Cc1nc2c(c(=O)n1CC#Cc1ccc(Cl)cc1-c1ccnc3c(C(=O)O)csc13)CC(N1CCCCC1)CC2` (single isomer, unassigned) [Compound 298] are below 100 nM, below 1000 nM and below 5000 nM.
The matching figures for `Cc1cc(-c2cc(Cl)ccc2OCCn2c(C)nc3c(c2=O)CC(N2CC(F)(F)C4(CC4)C2)CC3)c2scc(C(=O)O)c2n1` (stereo not drawn) [Compound 279]: below 100 nM, below 1000 nM and below 5000 nM.
For `Cc1sc2c(-c3cc(Cl)ccc3OCCn3c(C)nc4c(c3=O)CC(N(C)CC3CC(F)(F)C3)CC4)cn(C)c(=O)c2c1C(=O)O` (single isomer, unassigned) [Compound 253], the IC50 was 100 to 500 nM in experiment [1], above 5000 nM in experiment [2] (setting [5]) and above 20000 nM in experiment [3].
Consider `Cc1nc2c(c(=O)n1CCOc1ccc(Cl)cc1-c1cccc(C(=O)O)c1)CC(N(C)C)CC2` (single isomer, unassigned) [Compound 24], for which the IC50 in experiment [1] is below 100 nM; in experiment [2] (setting [4]), below 1000 nM; in experiment [3], 5000 to 20000 nM.
In the case of `Cc1cc(-c2cc(Cl)ccc2OCCn2c(C)nc3c(c2=O)CC(N(C)C2CCOCC2)CC3)c2scc(C(=O)O)c2n1` (stereo not drawn) [Compound 77], the IC50 in experiment [1] was below 100 nM; in experiment [2] (setting [4]) it was below 1000 nM; in experiment [3] (Homo sapiens, COLO 205, 72 h), 5000 to 20000 nM.
For the molecule `COC1CCN(C2CCc3nc(C)n(CCOc4ccc(Cl)cc4-c4cc(C)nc5c(C(=O)NS(C)(=O)=O)csc45)c(=O)c3C2)CC1` (stereo not drawn) [Compound 79], the IC50 in experiment [1] was below 100 nM; in experiment [2] (setting [4]), below 1000 nM; in experiment [3] (Homo sapiens, COLO 205, 72 h) it was below 5000 nM.
In the same order, the values of `Cc1cc(-c2cc(Cl)ccc2OCCn2c(C)nc3c(c2=O)CC(N(CC(F)(F)F)C2CC2)CC3)c2scc(C(=O)NS(C)(=O)=O)c2n1` (single isomer, unassigned) [Compound 308] are 100 to 500 nM, 1000 to 5000 nM and 5000 to 20000 nM.
The matching figures for `Cc1cc(-c2cc(Cl)ccc2OCCn2c(C)nc3c(c2=O)C[C@@H](N2CC[C@@H](F)C2)CC3)c2scc(C(=O)NS(C)(=O)=O)c2n1` (single isomer, unassigned) [Compound 312]: below 100 nM, below 1000 nM and below 5000 nM.
In the same order, the values of `Cc1cc(-c2cc(Cl)ccc2OCCn2c(C)nc3c(c2=O)CC(N(C)C2CC2)CC3)c2c(n1)c(C(=O)O)cn2C` (stereo not drawn) [Compound 277] are 500 to 5000 nM, above 5000 nM and above 20000 nM.
Regarding `Cc1cc(-c2cc(Cl)ccc2OCCn2c(C)nc3c(c2=O)CC(N(C)C2CC2)CC3)c2scc(C(=O)NS(C)(=O)=O)c2n1` (single isomer, unassigned) [Compound 302], the IC50 in experiment [1] was below 100 nM; in experiment [2] (setting [4]), below 1000 nM; in experiment [3] (Homo sapiens, COLO 205, 72 h), below 5000 nM.
In the same order, the values of `Cc1cc(-c2cc(Cl)ccc2OCCn2c(C)nc3c(c2=O)CC(N(CC(F)(F)F)C2CCC2)CC3)c2scc(C(=O)NS(C)(=O)=O)c2n1` (stereo not drawn) [Compound 87] are below 100 nM, below 1000 nM and below 5000 nM.
The matching figures for `Cc1cc(-c2cc(Cl)ccc2OCCn2c(C)nc3c(c2=O)CC(N(C)C2CC2)CC3)c2scc(C(=O)NS(=O)(=O)c3ccncc3)c2n1` (single isomer, unassigned) [Compound 284]: below 100 nM, 1000 to 5000 nM and 5000 to 20000 nM.
Take `Cc1cc(-c2cc(Cl)ccc2OCCn2c(C)nc3c(c2=O)CC(N2CCOCC2)CC3)c2scc(C(=O)O)c2n1` (stereo not drawn) [Compound 9]: the IC50 is below 100 nM in experiment [1]; below 1000 nM in experiment [2] (Homo sapiens, Flp-In-293, 24 h, read-out: DLA 205 IC50, dual luciferase assay, Flp-In-293 reporter cells, 24 hours, Fluc/Rluc ratio); below 5000 nM in experiment [3] (Homo sapiens).
